According to paper PMC8596838, “Xylose‐Configured Cyclophellitols as Selective Inhibitors for Glucocerebrosidase” (Chembiochem, 2021):
Like-named read-outs stand apart in the source and are kept apart here.

Experiments:
[1] = molecular target: T1, GBA2 (Homo sapiens, UniProt Q9HCG7); experiment: Fluorogenic substrate enzymatic assay, lysate of GBA/GBA2 KO HEK293T cells overexpressing GBA2; assay type: biochemical; details: for (Ratio) GBA2/GBA / GBA2/GBA ratio, 3 h: IC50 ratio; for increase in GBA:GBA2 selectivity window compared to the conduritol analogue (13 or 14): IC50 ratio GBA2/GBA
T1 construct: expressed in transfected cells; host or cells: HEK293T (GBA/GBA2 KO background for the fluorogenic assay; endogenous-GBA background with GBA2 and GBA3 overexpressed for ABPP and intact-cell assays)
T1 sequence (Q9HCG7 1-927): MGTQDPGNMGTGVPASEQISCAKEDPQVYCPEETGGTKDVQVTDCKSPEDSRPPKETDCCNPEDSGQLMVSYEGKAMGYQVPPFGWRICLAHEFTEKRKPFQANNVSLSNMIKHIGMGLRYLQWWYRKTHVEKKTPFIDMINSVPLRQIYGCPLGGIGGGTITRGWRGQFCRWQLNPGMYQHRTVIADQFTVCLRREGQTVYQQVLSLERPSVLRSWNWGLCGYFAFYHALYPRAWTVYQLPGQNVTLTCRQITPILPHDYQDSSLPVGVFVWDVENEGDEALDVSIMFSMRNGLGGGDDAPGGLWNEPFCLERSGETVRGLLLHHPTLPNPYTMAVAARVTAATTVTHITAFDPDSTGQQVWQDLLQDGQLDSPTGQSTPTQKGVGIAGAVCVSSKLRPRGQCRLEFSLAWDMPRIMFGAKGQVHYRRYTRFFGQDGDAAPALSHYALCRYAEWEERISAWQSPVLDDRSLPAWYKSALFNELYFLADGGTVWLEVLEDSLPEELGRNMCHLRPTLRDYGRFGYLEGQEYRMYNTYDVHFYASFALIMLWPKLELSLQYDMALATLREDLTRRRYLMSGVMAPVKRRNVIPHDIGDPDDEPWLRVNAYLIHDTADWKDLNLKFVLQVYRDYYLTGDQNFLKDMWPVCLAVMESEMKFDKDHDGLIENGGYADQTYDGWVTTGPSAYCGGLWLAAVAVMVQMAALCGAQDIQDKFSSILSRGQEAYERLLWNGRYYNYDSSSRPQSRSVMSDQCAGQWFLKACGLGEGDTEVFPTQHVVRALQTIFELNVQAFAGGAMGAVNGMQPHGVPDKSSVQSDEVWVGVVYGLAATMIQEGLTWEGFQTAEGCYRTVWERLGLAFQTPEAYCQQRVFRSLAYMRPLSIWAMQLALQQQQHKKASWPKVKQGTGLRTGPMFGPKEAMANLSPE
Method: (§1) Enzyme activity assays: All assays were performed with lysates of HEK293T cells or zebrafish larvae in 96‐well plates at 37 °C. Samples were diluted with McIlvaine buffer (150 mM citric acid‐Na2HPO4) to a final volume of 25 μL, at pH appropriate for each enzyme. Assays were performed by incubating the samples with 100 μL 4‐methylumbelliferyl‐β‐D‐glucoside substrates diluted in McIlvaine buffer (with 0.1 % (w/v) bovine serum albumin (BSA)) for a period of 30 min or 3 h. The substrate mixtures used for each enzyme were as follows: GBA, 3.75 mM 4‐MU‐β‐D‐glucopyranoside (Glycosynth, Warrington Cheshire, UK) at pH 5.2, supplemented with 0.2 % (w/v) sodium taurocholate, 0.1 % (v/v) Triton X‐100, 0.1 % (w/v) bovine serum albumin (BSA); GBA2, 3.75 mM 4 MU‐β‐D‐glucopyranoside at pH 5.8; GBA3, 3.75 mM 4‐MU‐β‐D‐glucopyranoside at pH 6.0. After stopping the enzyme reaction with 200 μL 1 M NaOH‐glycine (pH 10.3), 4‐methylumbelliferone fluorescence was measured with a fluorimeter LS55 (Perkin Elmer, Waltham, MA, USA) with λEX 366 nm and λEM 445 nm. Enzyme activities were determined by subtraction of background (measured for incubations without enzyme). IC50 values were determined exactly as earlier described.[36]
The IC50 values were determined using a fluorogenic enzymatic assay. For GBA, 3.16 ng (53 fmol) of rhGBA, (recombinant human GBA, Imiglucerase) obtained from Sanofi Genzyme (Cambridge, MA, USA), was prepared in 12.5 μL McIlvaine buffer (150 mM, pH 5.2) supplemented with 0.1 % (v/v) Triton X‐100, and 0.2 % (w/v) sodium taurocholate, 0.1 % (w/v) bovine serum albumin (BSA). […] In the case of GBA2 or GBA3, lysates of GBA/GBA2 KO HEK293T cells overexpressing GBA2 or GBA3, respectively where used. The enzymatic activity of GBA, GBA2 and GBA3 were measured with 4MU‐β‐D‐glucoside substrate as described above.

[2] = molecular target: T2, GBA3 (Homo sapiens, UniProt Q9H227); experiment: Fluorogenic substrate enzymatic assay, lysate of GBA/GBA2 KO HEK293T cells overexpressing GBA3; assay type: biochemical; details: for (Ratio) GBA3/GBA: IC50 ratio
T2 construct: expressed in transfected cells; host or cells: HEK293T (GBA/GBA2 KO background for the fluorogenic assay; endogenous-GBA background with GBA2 and GBA3 overexpressed for ABPP and intact-cell assays)
T2 sequence (Q9H227 1-469): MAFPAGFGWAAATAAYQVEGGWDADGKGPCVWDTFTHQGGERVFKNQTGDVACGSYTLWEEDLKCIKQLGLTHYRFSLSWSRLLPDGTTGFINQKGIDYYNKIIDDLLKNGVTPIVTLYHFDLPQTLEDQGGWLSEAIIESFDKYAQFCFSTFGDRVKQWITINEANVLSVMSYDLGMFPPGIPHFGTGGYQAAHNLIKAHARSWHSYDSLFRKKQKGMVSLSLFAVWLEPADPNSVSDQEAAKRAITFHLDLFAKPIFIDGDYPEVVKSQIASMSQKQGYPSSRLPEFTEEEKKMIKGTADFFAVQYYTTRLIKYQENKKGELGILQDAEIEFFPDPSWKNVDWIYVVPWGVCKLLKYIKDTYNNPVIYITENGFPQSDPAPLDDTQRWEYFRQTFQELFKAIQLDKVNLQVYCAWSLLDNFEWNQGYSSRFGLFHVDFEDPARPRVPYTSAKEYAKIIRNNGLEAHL
Method: Using fluorogenic substrate‐based assays, we determined apparent IC50 values at 30 min incubation time of the xylo‐cyclophellitols in rhGBA, and GBA2 and GBA3 lysates of cells expressing only each of the enzymes specifically.
as §1
The IC50 values were determined using a fluorogenic enzymatic assay. For GBA, 3.16 ng (53 fmol) of rhGBA, (recombinant human GBA, Imiglucerase) obtained from Sanofi Genzyme (Cambridge, MA, USA), was prepared in 12.5 μL McIlvaine buffer (150 mM, pH 5.2) supplemented with 0.1 % (v/v) Triton X‐100, and 0.2 % (w/v) sodium taurocholate, 0.1 % (w/v) bovine serum albumin (BSA). The enzyme was incubated with 12.5 μL of inhibitors diluted in McIlvaine buffer (150 mM, pH 5.2) at 37 °C for 30 min. In the case of GBA2 or GBA3, lysates of GBA/GBA2 KO HEK293T cells overexpressing GBA2 or GBA3, respectively where used. The enzymatic activity of GBA, GBA2 and GBA3 were measured with 4MU‐β‐D‐glucoside substrate as described above.

[3] = incubation time 30 min, enzymatic assay, ±SD, n=3, read-out: In vitro apparent IC50 GBA2
[4] = incubation time 30 min, enzymatic assay, ±SD, n=3, read-out: In vitro apparent IC50 GBA3
[5] = 30 min incubation time, read-out: apparent IC50 GBA2
[6] = enzymatic assay performed for 3 h, n=3, read-out: In vitro apparent IC50 GBA2, 3 h

Row | SMILES | (Ratio) GBA2/GBA ([1]; in vitro, 30 min) | IC50 [1, 3] [µM] | (Ratio) GBA3/GBA ([2]; in vitro, 30 min) | IC50 [2, 4] [µM] | IC50 [1, 5] [µM] | increase in GBA:GBA2 selectivity window compared to the conduritol analogue (13 or 14) ([1]; in vitro 3 h) | GBA2/GBA ratio, 3 h ([1]; in vitro 3 h) | IC50 [1, 6] [µM] | increase in inhibitory activity towards GBA2 of aziridines relative to epoxide analogues ([1]; in vitro 3 h) | potency against GBA2 compared to 2 ([1]; in vitro, 30 min) | potency against GBA3 compared to unsubstituted xylo-cyclophellitol aziridine 2 ([2]; in vitro, 30 min) [fold] | IC50 ([2]; 30 min incubation time, read-out: apparent IC50 GBA3) [µM]
1 | OC[C@@H]1[C@@H](O)[C@H](O)[C@@H](O)[C@@H]2N[C@H]12 [compound 4, cyclophellitol aziridine, reference compound] | 0.8 | 0.279 ± 0.0445 | 99 | 33.8 ± 2.43 | – | – | – | – | – | – | – | –
2 | CN1/C(=C/C=C/C=C/C2=[N+](CCCCCC(=O)NCc3cn(C[C@@H]4[C@@H](O)[C@H](O)[C@@H](O)[C@@H]5O[C@H]45)nn3)c3ccccc3C2(C)C)C(C)(C)c2ccccc21 [ABP 9, reference compound] | > 111 | – | 128 | 5.78 ± 0.079 | – | – | – | – | – | – | – | –
3 | O[C@@H]1[C@@H](O)[C@H](O)C[C@H]2N[C@@H]12 [compound 2, β‐D‐xylo‐Cyclophellitol aziridine] | 44 | 31.6 ± 0.926 | >35 | > 25 | > 25 | three‐fold increase | 22 | 5.31 ± 0.12 | 10–20 fold | – | – | –
4 | [N-]=[N+]=NCCCCCCCCN1[C@H]2[C@H](O)[C@@H](O)[C@H](O)C[C@H]21 (stereo partly drawn) [compound 5] | 5317 | 6.38 ± 1.15 | 486 | 0.583 ± 0.202 | – | – | – | – | – | five‐fold higher | > 40 | –
5 | CN1/C(=C/C=C/C=C/C2=[N+](CCCCCC(=O)NCc3cn(CCCCCCCCN4[C@H]5[C@H](O)[C@@H](O)[C@H](O)C[C@H]54)nn3)c3ccccc3C2(C)C)C(C)(C)c2ccccc21 (stereo partly drawn) [ABP 6] | 84 | 0.544 ± 0.11 | 1561 | 10.1 ± 1 | – | – | – | – | – | – | – | –
6 | O[C@@H]1[C@@H](O)[C@H](O)C[C@H]2O[C@@H]12 [compound 1, xylo‐cyclophellitol] | >19 | > 50 | >19 | > 50 | > 25 | seven‐fold increase | 272 | 122 ± 30.2 | – | – | – | > 25
7 | OC[C@@H]1[C@@H](O)[C@H](O)[C@@H](O)[C@@H]2O[C@H]12 [compound 3, cyclophellitol] | 0.4 | 0.148 ± 0.00751 | 129 | 51.5 ± 4.01 | – | – | – | – | – | – | – | –
